Assay results reported in patent publication US9833497B2, “Human originated EGF domain proteins and use of the same” (CHENGDU SOURCEBIO LIMITED-LIABILITY COMPANY, priority 2013, dated 2017).

Tests used:
Assay type in all cases: cell-based
Serratia marcescens = experiment: MIC against Gram-negative bacteria: Serratia marcescens; conditions: for MIC against S. marcescens: Serratia marcescens
Method in brief: (§1)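 Bacteria grown in LB at 37° C to McFarland 0.5, resuspended and seeded at 5×10^5 CFU/mL in 96-well plates. Purified human EGF-domain proteins two-fold serially diluted, triplicate wells; cultured at 37° C, shaking 175 rpm. MIC = lowest protein concentration with no growth.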

Citrobacter diversus = experiment: MIC against Gram-negative bacteria: Citrobacter diversus; conditions: for MIC against C. diversus: Citrobacter diversus
Method in brief: as §1

Pseudomonas aeruginosa = experiment: MIC against Gram-negative bacteria: Pseudomonas aeruginosa; conditions: for MIC against P. aeruginosa: Pseudomonas aeruginosa
Method in brief: as §1

E. coli DH5α = experiment: Antibacterial activity: MIC and growth curve against E. coli DH5α in 96-well plate; conditions: minimal inhibitory concentration against E. coli DH5α; 96-well plate, 5×10^5 CFU/mL, 37° C., judged after 8 h
Method in brief: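 MIC taken as lowest protein level with no bacterial growth, tracked by A600 every 30 min during 37 °C, 175 rpm culture. Two-fold protein series 50-12.5 μg/mL final, triplicate wells, against 5×10^5 CFU/mL of LB-washed mid-log cells.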

Proteus vulgaris = experiment: MIC against Gram-negative bacteria: Proteus vulgaris; conditions: for MIC against P. vulgaris: Proteus vulgaris
Method in brief: as §1

Klebsiella pneumonia = experiment: MIC against Gram-negative bacteria: Klebsiella pneumonia; conditions: for MIC against K. pneumonia: Klebsiella pneumonia
Method in brief: as §1

Proteus mirabilis = experiment: MIC against Gram-negative bacteria: Proteus mirabilis; conditions: for MIC against P. mirabilis: Proteus mirabilis
Method in brief: as §1

Moraxella catarrhalis = experiment: MIC against Gram-negative bacteria: Moraxella catarrhalis; conditions: for MIC against M. catarrhalis: Moraxella catarrhalis
Method in brief: as §1

Enterobacter cloacae = experiment: MIC against Gram-negative bacteria: Enterobacter cloacae; conditions: for MIC against E. cloacae: Enterobacter cloacae
Method in brief: as §1

Aeromonas hydrophila = experiment: MIC against Gram-negative bacteria: Aeromonas hydrophila; conditions: for MIC against A. hydrophila: Aeromonas hydrophila
Method in brief: as §1

E. coli BL21 = experiment: MIC against Gram-negative bacteria: E. coli BL21
Method in brief: as §1

[1] = S. marcescens, 10 h cultivation at 37° C.
[2] = C. diversus, 10 h cultivation at 37° C.
[3] = P. aeruginosa, 10 h cultivation at 37° C.
[4] = P. vulgaris, 10 h cultivation at 37° C.
[5] = K. pneumonia, 10 h cultivation at 37° C.
[6] = P. mirabilis, 10 h cultivation at 37° C.
[7] = M. catarrhalis, 10 h cultivation at 37° C.
[8] = E. cloacae, 10 h cultivation at 37° C.
[9] = A. hydrophila, 10 h cultivation at 37° C.
[10] = E. coli BL21, 10 h cultivation at 37° C.
[11] = 96-well plate, 5×10^5 CFU/mL, 37° C., 10 h
[12] = E. coli BL21, 96-well plate, 5×10^5 CFU/mL, 37° C., 10 h
[13] = 10 h cultivation at 37° C., 5×10^5 CFU/mL, two-fold serial dilution

PRT783 (WGPNCSLPCYCKNGASCSPDDGICECAPGFRGTTCQ; listed as Homo sapiens)
MIC (μg/mL) S. marcescens (Serratia marcescens; S. marcescens, 10 h cultivation at 37° C., 5×10^5 CFU/mL): 12.5 µg/mL | MIC (μg/mL) C. diversus (Citrobacter diversus; C. diversus, 10 h cultivation at 37° C., 5×10^5 CFU/mL): 25 µg/mL | MIC (μg/mL) P. aeruginosa (Pseudomonas aeruginosa; P. aeruginosa, 10 h cultivation at 37° C., 5×10^5 CFU/mL): 50 µg/mL | MIC (E. coli DH5α): 25 mg/L | MIC (μg/mL) P. vulgaris (Proteus vulgaris; P. vulgaris, 10 h cultivation at 37° C., 5×10^5 CFU/mL): 50 µg/mL | MIC (μg/mL) K. pneumonia (Klebsiella pneumonia; K. pneumonia, 10 h cultivation at 37° C., 5×10^5 CFU/mL): 12.5 µg/mL | MIC (μg/mL) P. mirabilis (Proteus mirabilis; P. mirabilis, 10 h cultivation at 37° C., 5×10^5 CFU/mL): 25 µg/mL | MIC (μg/mL) M. catarrhalis (Moraxella catarrhalis; M. catarrhalis, 10 h cultivation at 37° C., 5×10^5 CFU/mL): 12.5 µg/mL | MIC (μg/mL) E. cloacae (Enterobacter cloacae; E. cloacae, 10 h cultivation at 37° C., 5×10^5 CFU/mL): 25 µg/mL | MIC (μg/mL) A. hydrophila (Aeromonas hydrophila; A. hydrophila, 10 h cultivation at 37° C., 5×10^5 CFU/mL): 50 µg/mL | MIC (μg/mL) E. coli BL21 (E. coli BL21; E. coli BL21, 10 h cultivation at 37° C., 5×10^5 CFU/mL): 12.5 µg/mL

PRT962 (NVDDCSPDPCHHGRCVDGIASFSCACAPGYTGTRCE; listed as Homo sapiens)
MIC (Serratia marcescens; [1]): 25 mg/L | MIC (Citrobacter diversus; [2]): 12.5 mg/L | MIC (Pseudomonas aeruginosa; [3]): 25 mg/L | MIC (E. coli DH5α): 25 mg/L | MIC (Proteus vulgaris; [4]): 12.5 mg/L | MIC (Klebsiella pneumonia; [5]): 12.5 mg/L | MIC (Proteus mirabilis; [6]): 50 mg/L | MIC (Moraxella catarrhalis; [7]): 25 mg/L | MIC (Enterobacter cloacae; [8]): 25 mg/L | MIC (Aeromonas hydrophila; [9]): 50 mg/L | MIC (E. coli BL21; [10]): 50 mg/L

PRT709 (SCQLCDGYCYNGGTCQLDPETNVPVCLCSTNWSGTQCE; listed as Homo sapiens)
MIC S. marcescens (Serratia marcescens; [11]): 50 mg/L | MIC C. diversus (Citrobacter diversus; [11]): 12.5 mg/L | MIC P. aeruginosa (Pseudomonas aeruginosa; [11]): 50 mg/L | MIC (E. coli DH5α): 50 mg/L | MIC P. vulgaris (Proteus vulgaris; [11]): 12.5 mg/L | MIC K. pneumonia (Klebsiella pneumonia; [11]): 25 mg/L | MIC P. mirabilis (Proteus mirabilis; [11]): 25 mg/L | MIC M. catarrhalis (Moraxella catarrhalis; [11]): 50 mg/L | MIC E. cloacae (Enterobacter cloacae; [11]): 12.5 mg/L | MIC A. hydrophila (Aeromonas hydrophila; [11]): 50 mg/L | MIC E. coli BL21 (E. coli BL21; [11]): 12.5 mg/L

PRT1260 (DINECLVNNGGCDHFCRNTVGSFECGCRKGYKLLTDERTCQ; listed as Homo sapiens)
MIC against S. marcescens (Serratia marcescens; [11]): 25 mg/L | MIC against C. diversus (Citrobacter diversus; [11]): 12.5 mg/L | MIC against P. aeruginosa (Pseudomonas aeruginosa; [11]): 25 mg/L | MIC (E. coli DH5α): 25 mg/L | MIC against P. vulgaris (Proteus vulgaris; [11]): 50 mg/L | MIC against K. pneumonia (Klebsiella pneumonia; [11]): 12.5 mg/L | MIC against P. mirabilis (Proteus mirabilis; [11]): 12.5 mg/L | MIC against M. catarrhalis (Moraxella catarrhalis; [11]): 50 mg/L | MIC against E. cloacae (Enterobacter cloacae; [11]): 25 mg/L | MIC against A. hydrophila (Aeromonas hydrophila; [11]): 50 mg/L | MIC against E. coli BL21 (E. coli BL21; [12]): 50 mg/L

PRT1183 (NIDDCLGQPCRNGGTCIDEVDAFRCFCPSGWEGELCD; listed as Homo sapiens)
MIC S. marcescens (Serratia marcescens; [13]): 12.5 mg/L | MIC C. diversus (Citrobacter diversus; [13]): 12.5 mg/L | MIC P. aeruginosa (Pseudomonas aeruginosa; [13]): 25 mg/L | MIC (E. coli DH5α): 25 mg/L | MIC P. vulgaris (Proteus vulgaris; [13]): 25 mg/L | MIC K. pneumonia (Klebsiella pneumonia; [13]): 12.5 mg/L | MIC P. mirabilis (Proteus mirabilis; [13]): 50 mg/L | MIC M. catarrhalis (Moraxella catarrhalis; [13]): 25 mg/L | MIC E. cloacae (Enterobacter cloacae; [13]): 50 mg/L | MIC A. hydrophila (Aeromonas hydrophila; [13]): 25 mg/L | MIC E. coli BL21 (E. coli BL21; [13]): 50 mg/L

PRT978 (DVDECASQPCQHGGSCIDLVARYLCSCPPGTLGVLCE; listed as Homo sapiens)
MIC (Serratia marcescens; [1]): 12.5 mg/L | MIC (Citrobacter diversus; [2]): 50 mg/L | MIC (Pseudomonas aeruginosa; [3]): 12.5 mg/L | MIC (E. coli DH5α): 12.5 mg/L | MIC (Proteus vulgaris; [4]): 50 mg/L | MIC (Klebsiella pneumonia; [5]): 50 mg/L | MIC (Proteus mirabilis; [6]): 25 mg/L | MIC (Moraxella catarrhalis; [7]): 12.5 mg/L | MIC (Enterobacter cloacae; [8]): 12.5 mg/L | MIC (Aeromonas hydrophila; [9]): 25 mg/L | MIC (E. coli BL21; [10]): 50 mg/L

PRT1289 (LAEPCRGLQCLHGHCQASGTKGAHCVCDPGFSGELCE; listed as Homo sapiens)
MIC against S. marcescens (Serratia marcescens; [11]): 25 mg/L | MIC against C. diversus (Citrobacter diversus; [11]): 12.5 mg/L | MIC against P. aeruginosa (Pseudomonas aeruginosa; [11]): 12.5 mg/L | MIC (E. coli DH5α): 12.5 mg/L | MIC against P. vulgaris (Proteus vulgaris; [11]): 50 mg/L | MIC against K. pneumonia (Klebsiella pneumonia; [11]): 12.5 mg/L | MIC against P. mirabilis (Proteus mirabilis; [11]): 12.5 mg/L | MIC against M. catarrhalis (Moraxella catarrhalis; [11]): 50 mg/L | MIC against E. cloacae (Enterobacter cloacae; [11]): 25 mg/L | MIC against A. hydrophila (Aeromonas hydrophila; [11]): 12.5 mg/L | MIC against E. coli BL21 (E. coli BL21; [12]): 12.5 mg/L
